The text below walks through data of PMC4032265 (PLoS ONE, 2014).

Each structure is given as a SMILES string. Values joined by “and” are separate entries in the source; they are usually repeats but may differ in a detail not shown here. Equal entries are not always repeated. Where two headings read alike, the source gives them in different places.

The target in test [1] is H1 histaminergic receptor (Homo sapiens, UniProt P35367). Description: PDSP radioligand binding, H1. Particulars: read-out: % inhibition at 10 µM.
The target of test [2] is H2 histaminergic receptor (Homo sapiens, UniProt P25021). The test is described as follows: PDSP radioligand binding, H2. The conditions noted are these: read-out: % inhibition at 10 µM.
Test [3] addresses H3 histaminergic receptor (Homo sapiens, UniProt Q9Y5N1). The test is described as follows: PDSP radioligand binding, H3. The conditions noted are these: read-out: % inhibition at 10 µM.
In test [4] the target is T1, 5HT2C serotonergic receptor (Homo sapiens, UniProt P28335).
T1 sequence (P28335 33-458): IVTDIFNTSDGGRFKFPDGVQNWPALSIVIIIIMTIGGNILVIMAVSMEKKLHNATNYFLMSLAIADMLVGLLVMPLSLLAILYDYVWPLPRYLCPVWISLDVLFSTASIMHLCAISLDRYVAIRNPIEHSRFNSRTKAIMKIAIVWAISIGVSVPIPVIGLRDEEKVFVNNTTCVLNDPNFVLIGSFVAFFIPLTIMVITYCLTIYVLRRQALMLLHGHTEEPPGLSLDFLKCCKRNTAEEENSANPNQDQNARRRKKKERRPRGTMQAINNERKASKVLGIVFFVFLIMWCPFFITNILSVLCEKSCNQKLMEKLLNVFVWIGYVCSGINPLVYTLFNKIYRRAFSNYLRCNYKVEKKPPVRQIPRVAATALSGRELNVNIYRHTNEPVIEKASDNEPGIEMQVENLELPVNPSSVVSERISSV
The test is described as follows: PDSP radioligand binding, 5HT2C. Particulars: for Ki: full concentration-response curves, n = 3-6 unless noted; for inhibition at 10 µM: read-out: % inhibition at 10 µM.

Test [5] concerns the target T2, hA2AAR (Homo sapiens, UniProt P29274). Further details: method as in earlier work. The conditions noted are these: ref 1-4 of Table S1 (Tosh et al. 2009, 2012); cited from earlier work.
The target of test [6] is T3, hA1AR (Homo sapiens, UniProt P30542).
T3 sequence (P30542 1-326): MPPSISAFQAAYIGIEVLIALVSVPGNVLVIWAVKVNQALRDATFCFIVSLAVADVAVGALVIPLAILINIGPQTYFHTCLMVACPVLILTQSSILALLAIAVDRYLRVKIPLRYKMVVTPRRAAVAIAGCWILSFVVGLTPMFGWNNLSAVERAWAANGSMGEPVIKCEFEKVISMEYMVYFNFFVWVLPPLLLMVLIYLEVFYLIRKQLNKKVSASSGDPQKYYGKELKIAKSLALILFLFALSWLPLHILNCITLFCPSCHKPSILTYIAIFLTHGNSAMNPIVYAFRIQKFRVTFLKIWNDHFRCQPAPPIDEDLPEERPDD
Particulars: ref 1-4 of Table S1 (Tosh et al. 2009, 2012); cited from earlier work.

The target of another test is 5HT2C receptor (Homo sapiens, UniProt P28335). Description: 5HT2C functional assay, antagonist mode (inhibition of agonist activity). The test is classed as cell-based. Particulars: 10 µM.
For another test, the target named is 5HT2B receptor (Homo sapiens, UniProt P41595). The test is described as follows: 5HT2B functional assay, antagonist mode (inhibition of agonist activity). The conditions noted are these: for % inhibition as antagonist at 5HT2B: 10 µM; for IC50: antagonist mode. The class given is cell-based.
Test [7] deals with T3, hA1AR. Description: Radioligand binding at hA1AR. Particulars: compounds 8 and 9, measured for this study.
The target in test [8] is T2, hA2AAR. The test is described as follows: Radioligand binding at hA2AAR. The conditions noted are these: compounds 8 and 9, measured for this study.
In a further test the target is hA3AR (Homo sapiens, UniProt P0DMS8). Description: Radioligand binding at hA3AR.
The next test has as its target T4, α2C adrenergic receptor (Homo sapiens, UniProt P18825).
T4 sequence (P18825 1-462): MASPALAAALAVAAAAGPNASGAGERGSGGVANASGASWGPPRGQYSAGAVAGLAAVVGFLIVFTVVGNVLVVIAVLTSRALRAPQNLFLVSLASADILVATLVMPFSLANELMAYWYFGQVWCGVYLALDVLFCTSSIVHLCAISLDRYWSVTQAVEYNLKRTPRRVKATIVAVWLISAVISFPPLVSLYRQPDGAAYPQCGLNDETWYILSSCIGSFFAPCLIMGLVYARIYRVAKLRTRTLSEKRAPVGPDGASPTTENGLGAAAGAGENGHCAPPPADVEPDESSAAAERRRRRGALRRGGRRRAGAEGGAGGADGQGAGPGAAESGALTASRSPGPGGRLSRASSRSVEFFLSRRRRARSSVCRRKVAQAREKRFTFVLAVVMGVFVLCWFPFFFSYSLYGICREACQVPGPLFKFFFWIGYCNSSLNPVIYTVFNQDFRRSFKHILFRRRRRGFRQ
Description: α2C adrenergic receptor functional assay (antagonist). The class given is cell-based.

For the next test, the target named is T5, YXα3β4H1 receptor (Homo sapiens, UniProt P30926+P32297).
T5 construct: expressed in transfected cells
Description: 86Rb+ efflux, nicotinic acetylcholine receptor antagonist activity, YXα3β4H1 cells. The test is classed as cell-based. Particulars: cells expressing YXα3β4H1 receptor.

A further test deals with T6, KXα3β4 receptor 2 (Rattus norvegicus, UniProt P04757+P12392).
T6 construct: expressed in transfected cells; host or cells: KXα3β4 receptor 2 (KXα3β4R2) cells
Description: 86Rb+ efflux, nicotinic acetylcholine receptor antagonist activity, KXα3β4 receptor 2 cells. The test is classed as cell-based. The conditions noted are these: cells expressing KXα3β4 receptor 2.

Another test deals with T7, KXα4β2 receptor 2 (Rattus norvegicus, UniProt P09483+P12390).
T7 construct: expressed in transfected cells
Description: [3H]epibatidine binding in cells expressing KXα4β2 receptor 2.

Where [9] appears, read: read-out: IC50 at 5HT2B receptors (Figure S2).

For orientation: inhibition means the change of the read-out against control, counted positive when it falls. By Ki is commonly meant the equilibrium dissociation constant of an inhibitor or competing ligand from its target. A high value points to lower affinity. On to `CNC(=O)[C@@]12C[C@@H]1[C@@H](n1cnc3c(NCc4cccc(Cl)c4)nc(C#Cc4ccc(F)c(F)c4)nc31)[C@H](O)[C@@H]2O` [Compound 1], for which the inhibition at 10 µM in test [1] came out at 0%; in test [2], 34%; in test [3] it was 8%; in test [4] it was 20%. The compound further gave a Ki in test [4] of 7190 ± 1410 nM. For the same compound, the hA2AAR % inhibition at hA2AAR [5] is 41%±10%. Besides, the hA1AR % inhibition at hA1AR [6] is recorded as < 10%.

As for `CNC(=O)[C@@]12C[C@@H]1[C@@H](n1cnc3c(NCc4cccc(Cl)c4)nc(C#Cc4ccc(F)cc4)nc31)[C@H](O)[C@@H]2O` [Compound 2], the inhibition at 10 µM worked out at 0% in [1] (single concentration 10 µM), 0% in test [3] (single concentration 10 µM) and 16% in [4] (single concentration 10 µM). The hA2AAR % inhibition on hA2AAR [5] is 42%±2%. Moreover, the hA1AR % inhibition at hA1AR [6] is 20%±6%.

As for `CNC(=O)[C@@]12C[C@@H]1[C@@H](n1cnc3c(NCc4cccc(Cl)c4)nc(C#Cc4ccccc4Cl)nc31)[C@H](O)[C@@H]2O` [Compound 3], the inhibition at 10 µM in test [1] (single concentration 10 µM) was found to be 21%; in test [3] (single concentration 10 µM) it was 0%; in [4] (single concentration 10 µM) it was 25%. Moreover, the hA2AAR % inhibition on hA2AAR [5] is recorded as 52%±12%. At hA1AR [6], the hA1AR % inhibition was 19%±2%.

In general, IC50 refers to the concentration needed to halve the response being measured. As for `CNC(=O)[C@@]12C[C@@H]1[C@@H](n1cnc3c(NCc4cccc(Cl)c4)nc(Cl)nc31)[C@H](O)[C@@H]2O` [Compound 4], the “% inhibition as antagonist at 5HT2C” value at 5HT2C receptor stood at 94%. Also, the “% inhibition as antagonist at 5HT2B” value at 5HT2B receptor is given as 60%. In addition, the IC50 on 5HT2B receptor (read-out: IC50, inhibition of agonist activity at 5HT2B) is 887 nM; on 5HT2B receptor (setting [9]), 3260 nM. Further, the figures for the inhibition at 10 µM in [1] (single concentration 10 µM), in test [3] (single concentration 10 µM) and in test [4] (single concentration 10 µM) were 6%, 0% and 95%, respectively. In [4], the Ki is 120 nM and 122 nM.

Turning to `CNC(=O)[C@@]12C[C@@H]1[C@@H](n1cnc3c(NC)nc(C#Cc4ccc(F)c(F)c4)nc31)[C@H](O)[C@@H]2O` [Compound 5], the figures for the inhibition at 10 µM in [1] (single concentration 10 µM), in [3] (single concentration 10 µM) and in test [4] were 0%, 0% and 1%, respectively. For the same compound, the hA2AAR % inhibition at hA2AAR [5] is on record as < 10%. For the same compound, the hA1AR % inhibition on hA1AR [6] was < 10%.

On to `O[C@@H]1[C@H](O)[C@@H]2C[C@@H]2[C@H]1n1cnc2c(NCc3cccc(Cl)c3)nc(C#Cc3ccc(F)c(F)c3)nc21` [Compound 6], for which the inhibition at 10 µM in test [1] (single concentration 10 µM) turned out to be 3%; in test [2] (single concentration 10 µM) it was 0%; in test [3] (single concentration 10 µM) it was 0%; in test [4] (single concentration 10 µM) it was 0%. Also, on hA1AR [6], the hA1AR % inhibition is recorded as 29%±1%.

Consider `O[C@@H]1[C@H](O)[C@@H]2C[C@@H]2[C@H]1n1cnc2c(NCc3cccc(Cl)c3)ncnc21` [Compound 7], for which the inhibition at 10 µM was determined as 64% in test [1] (single concentration 10 µM), 0% in [3] (single concentration 10 µM) and 51% in test [4] (single concentration 10 µM). Besides, the Ki in test [4] is 1740 nM.

Take `Fc1ccc(C#Cc2nc(NCc3cccc(Cl)c3)c3nc[nH]c3n2)cc1F` [Compound 8]: the hA1AR % inhibition at hA1AR [7] is reported as < 10%. Besides, the figures for the inhibition at 10 µM in [1] (single concentration 10 µM), in [3] (single concentration 10 µM) and in test [4] (single concentration 10 µM) were 1%, 0% and 11%, respectively. Further, on hA2AAR [8], the hA2AAR % inhibition is < 10%. This compound also returned a Ki on hA3AR of 120 nM.

As for `Clc1cccc(CNc2nc(Cl)nc3[nH]cnc23)c1` [Compound 9], the hA1AR % inhibition at hA1AR [7] is on record as 45%±3%. Besides, on 5HT2C receptor, the “% inhibition as antagonist at 5HT2C” value was found to be 65%. Besides, on 5HT2B receptor, the “% inhibition as antagonist at 5HT2B” value is recorded as 26%. Moreover, the IC50 on 5HT2B receptor (setting [9]) stood at 890 nM; against α2C adrenergic receptor, 2900 nM. In addition, the inhibition at 10 µM stood at 4% in test [1] (single concentration 10 µM), 3% in test [3] (single concentration 10 µM) and 56% in test [4] (single concentration 10 µM). In addition, the hA2AAR % inhibition at hA2AAR [8] was 37%±1%. The Ki at hA3AR was 165 nM; in [4] it was 3320 ± 320 nM.

`O[C@@H]1[C@H](O)[C@@H]2C[C@@H]2[C@H]1n1cnc2c(NC(C3CC3)C3CC3)nc(Cl)nc21` [Compound 10]: the IC50 against YXα3β4H1 receptor stood at 30300 nM; against KXα3β4 receptor 2 it was 21200 nM. Also, the inhibition at 10 µM came to 0% in test [1] (single concentration 10 µM), 13% in test [2] (single concentration 10 µM), 8% in [3] (single concentration 10 µM) and 49% in [4]. Further, the affinity in [4], expressed as Ki, was 1850 ± 460 nM. Also, at KXα4β2 receptor 2, the “inhibition of [3H]epibatidine binding” value is “no inhibition”.
